From ChEMBL document CHEMBL1201862, “PubChem BioAssay data set” (2004)
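The compound was tested at five concentrations on cells cultured in 96-well plates, with a 48-hour exposure period. GI50 is the concentration that inhibits growth by half.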 Active and inactive are the calls of the source. Cut-off read from the data, not from the text of the source: active = GI50 up to about 1.1 µM and inactive = higher.

What was measured:
Experiment in all cases: growth of human tumour cells (NCI), 48 h
A549 = system: A549
MDA-MB-231 = system: MDA-MB-231
SF-539 = system: SF-539
OVCAR-5 = system: OVCAR-5
MOLT-4 = system: MOLT-4
UO-31 = system: UO-31
SNB-19 = system: SNB-19
Malme-3M = system: Malme-3M
OVCAR-4 = system: OVCAR-4
NCI-H522 = system: NCI-H522
NCI-H460 = system: NCI-H460
M14 = system: M14
SF-268 = system: SF-268
OVCAR-8 = system: OVCAR-8
NCI-H23 = system: NCI-H23
EKVX = system: EKVX
KM12 = system: KM12
HL-60 = system: HL-60
NCI-H226 = system: NCI-H226
CCRF-CEM = system: CCRF-CEM
A498 = system: A498
K562 = system: K562
PC-3 = system: PC-3
SK-MEL-28 = system: SK-MEL-28
NCI/ADR-RES = system: NCI/ADR-RES
SNB-75 = system: SNB-75
HT-29 = system: HT-29
ACHN = system: ACHN
HCT-116 = system: HCT-116
786-0 = system: 786-0
UACC-62 = system: UACC-62
HCT-15 = system: HCT-15
MCF7 = system: MCF7
SF-295 = system: SF-295
UACC-257 = system: UACC-257
U-251 = system: U-251
LOX IMVI = system: LOX IMVI
MDA-MB-435 = system: MDA-MB-435
TK-10 = system: TK-10
CAKI-1 = system: CAKI-1
MDA-N = system: MDA-N
RPMI-8226 = system: RPMI-8226
RXF 393 = system: RXF 393
SK-MEL-5 = system: SK-MEL-5
COLO 205 = system: COLO 205
SK-OV-3 = system: SK-OV-3
OVCAR-3 = system: OVCAR-3
SK-MEL-2 = system: SK-MEL-2
SN12C = system: SN12C
SW-620 = system: SW-620
DU-145 = system: DU-145
T47D = system: T47D
IGROV-1 = system: IGROV-1
SR = system: SR
Hs-578T = system: Hs-578T
HOP-92 = system: HOP-92
HOP-62 = system: HOP-62

What does the source list for `CC(=O)Oc1ccc(-c2c(OC(C)=O)c(OC(C)=O)c(-c3ccc(OC(C)=O)c(OC(C)=O)c3)c(OC(C)=O)c2OC(C)=O)cc1`?
GI50 (A549): 17.8 µM (inactive); GI50 (MDA-MB-231): 18.6 µM (inactive); GI50 (SF-539): 18.2 µM (inactive); GI50 (OVCAR-5): 12.5 µM (inactive); GI50 (MOLT-4): 20.2 µM (inactive); GI50 (UO-31): 15.5 µM (inactive); GI50 (SNB-19): 15.8 µM (inactive); GI50 (Malme-3M): 16.1 µM (inactive); GI50 (OVCAR-4): 17.6 µM (inactive); GI50 (NCI-H522): 5.46 µM (inactive); GI50 (NCI-H460): 40.1 µM (inactive); GI50 (M14): 18.1 µM (inactive); GI50 (SF-268): 17.7 µM (inactive); GI50 (OVCAR-8): 14.6 µM (inactive); GI50 (NCI-H23): 19 µM (inactive); GI50 (EKVX): 553 nM (active); GI50 (KM12): 14.4 µM (inactive); GI50 (HL-60): 22.9 µM (inactive); GI50 (NCI-H226): 17.9 µM (inactive); GI50 (CCRF-CEM): 10.7 µM (inactive); GI50 (A498): 20.1 µM (inactive); GI50 (K562): 21.5 µM (inactive); GI50 (PC-3): 15.9 µM (inactive); GI50 (SK-MEL-28): 14.8 µM (inactive); GI50 (NCI/ADR-RES): 39.7 µM (inactive); GI50 (SNB-75): 13.6 µM (inactive); GI50 (HT-29): 18.2 µM (inactive); GI50 (ACHN): 16.4 µM (inactive); GI50 (HCT-116): 18.8 µM (inactive); GI50 (786-0): 16.1 µM (inactive); GI50 (UACC-62): 17.8 µM (inactive); GI50 (HCT-15): 17.1 µM; GI50 (MCF7): 23.7 µM (inactive); GI50 (SF-295): 6.03 µM (inactive); GI50 (UACC-257): 15.1 µM (inactive); GI50 (U-251): 17.5 µM (inactive); GI50 (LOX IMVI): 16.1 µM (inactive); GI50 (MDA-MB-435): 16.9 µM (inactive); GI50 (TK-10): 15.9 µM (inactive); GI50 (CAKI-1): 21.3 µM (inactive); GI50 (MDA-N): 16.9 µM (inactive); GI50 (RPMI-8226): 16.3 µM (inactive); GI50 (RXF 393): 18.2 µM (inactive); GI50 (SK-MEL-5): 11.7 µM (inactive); GI50 (COLO 205): 17.7 µM (inactive); GI50 (SK-OV-3): 22.3 µM (inactive); GI50 (OVCAR-3): 15.7 µM (inactive); GI50 (SK-MEL-2): 16.1 µM (inactive); GI50 (SN12C): 18.8 µM (inactive); GI50 (SW-620): 14.9 µM (inactive); GI50 (DU-145): 16.3 µM (inactive); GI50 (T47D): 10.6 µM (inactive); GI50 (IGROV-1): 15.5 µM (inactive); GI50 (SR): 23.9 µM (inactive)

Which results are given for `CCN1C(=O)/C(=C/Nc2ccccc2)S/C1=N/Nc1nc(-c2ccc(O)c(O)c2)cs1`?
GI50 (A549): 33.7 µM (inactive); GI50 (MDA-MB-231): 6.65 µM (inactive); GI50 (SF-539): 2.07 µM (inactive); GI50 (OVCAR-5): > 100 µM (inactive); GI50 (MOLT-4): 5.53 µM (inactive); GI50 (UO-31): 8.02 µM (inactive); GI50 (SNB-19): 4.66 µM (inactive); GI50 (Malme-3M): 6.19 µM (inactive); GI50 (OVCAR-4): 40.8 µM (inactive); GI50 (NCI-H522): 3.66 µM (inactive); GI50 (NCI-H460): 35.2 µM (inactive); GI50 (M14): 5.61 µM (inactive); GI50 (SF-268): 23.4 µM (inactive); GI50 (OVCAR-8): 5.07 µM (inactive); GI50 (NCI-H23): 7.18 µM (inactive); GI50 (EKVX): 16900 nM (inactive); GI50 (Hs-578T): 96.2 µM (inactive); GI50 (KM12): 5.01 µM (inactive); GI50 (HL-60): 2.33 µM (inactive); GI50 (NCI-H226): 51.5 µM (inactive); GI50 (CCRF-CEM): 4.53 µM (inactive); GI50 (K562): 3.4 µM (inactive); GI50 (PC-3): 33.9 µM (inactive); GI50 (SK-MEL-28): 7.59 µM (inactive); GI50 (NCI/ADR-RES): 3.61 µM (inactive); GI50 (SNB-75): 3.05 µM (inactive); GI50 (HT-29): 29.8 µM (inactive); GI50 (ACHN): 15.3 µM (inactive); GI50 (HOP-92): 13.2 µM (inactive); GI50 (HCT-116): 8.63 µM (inactive); GI50 (786-0): 23 µM (inactive); GI50 (UACC-62): 6.4 µM (inactive); GI50 (HCT-15): 7.76 µM; GI50 (MCF7): 4 µM (inactive); GI50 (SF-295): 4.46 µM (inactive); GI50 (UACC-257): 6.44 µM (inactive); GI50 (U-251): 6.56 µM (inactive); GI50 (LOX IMVI): 6.08 µM (inactive); GI50 (MDA-MB-435): 1.71 µM (inactive); GI50 (TK-10): 38.5 µM (inactive); GI50 (CAKI-1): 31.8 µM (inactive); GI50 (MDA-N): 1.71 µM (inactive); GI50 (RPMI-8226): 12.3 µM (inactive); GI50 (RXF 393): 3.39 µM (inactive); GI50 (SK-MEL-5): 3.96 µM (inactive); GI50 (COLO 205): 35.5 µM (inactive); GI50 (SK-OV-3): 33.5 µM (inactive); GI50 (OVCAR-3): 5.69 µM (inactive); GI50 (SK-MEL-2): 4.31 µM (inactive); GI50 (SN12C): 4.24 µM (inactive); GI50 (SW-620): 8.47 µM (inactive); GI50 (HOP-62): 6.22 µM (inactive); GI50 (DU-145): 5.64 µM (inactive); GI50 (IGROV-1): 32.6 µM (inactive); GI50 (SR): 2.7 µM (inactive)

What does the source list for `COc1cccc2c1[C@H](OC)[C@]13O[C@@]1(C2=O)[C@H](O)[C@H](C)[C@@](O)(C(=O)[C@@H]1O[C@H]1C)[C@@H]3O`?
GI50 (A549): 0.199 µM (active); GI50 (MDA-MB-231): 0.202 µM (active); GI50 (MOLT-4): 0.299 µM (active); GI50 (Malme-3M): 0.169 µM (active); GI50 (OVCAR-4): 0.208 µM (active); GI50 (NCI-H522): 0.185 µM (active); GI50 (SF-268): 0.246 µM (active); GI50 (OVCAR-8): 0.217 µM (active); GI50 (NCI-H23): 0.196 µM (active); GI50 (EKVX): 187 nM (active); GI50 (Hs-578T): 0.235 µM (active); GI50 (KM12): 0.318 µM (active); GI50 (HL-60): 0.31 µM (active); GI50 (NCI-H226): 0.335 µM (active); GI50 (CCRF-CEM): 0.155 µM (active); GI50 (A498): 0.253 µM (active); GI50 (K562): 0.259 µM (active); GI50 (PC-3): 0.266 µM (active); GI50 (SK-MEL-28): 0.23 µM (active); GI50 (NCI/ADR-RES): 0.337 µM (active); GI50 (ACHN): 0.211 µM (active); GI50 (HOP-92): 0.194 µM (active); GI50 (786-0): 0.264 µM (active); GI50 (UACC-62): 0.298 µM (active); GI50 (HCT-15): 0.255 µM; GI50 (MCF7): 0.294 µM (active); GI50 (SF-295): 0.218 µM (active); GI50 (UACC-257): 0.225 µM (active); GI50 (U-251): 0.303 µM (active); GI50 (LOX IMVI): 0.237 µM (active); GI50 (MDA-MB-435): 0.214 µM (active); GI50 (TK-10): 0.318 µM (active); GI50 (MDA-N): 0.265 µM (active); GI50 (RPMI-8226): 0.172 µM (active); GI50 (RXF 393): 0.245 µM (active); GI50 (SK-MEL-5): 0.172 µM (active); GI50 (COLO 205): 0.165 µM (active); GI50 (SK-OV-3): 0.21 µM (active); GI50 (OVCAR-3): 0.276 µM (active); GI50 (SK-MEL-2): 0.175 µM (active); GI50 (SW-620): 0.21 µM (active); GI50 (HOP-62): 0.232 µM (active); GI50 (DU-145): 0.282 µM (active); GI50 (T47D): 0.313 µM (active); GI50 (IGROV-1): 0.229 µM (active)
